# Experimental data: US9567331B2 (priority 2011, dated 2017)
# Key:
# [1] = test system: wild-type vaccinia strain Western Reserve; type: cell-based
# [2] = test system: vaccinia virus; type: cell-based
# [3] = test system: LREV virus (late red early Venus reporter vaccinia virus); type: cell-based
# [4] = test system: late Venus; LV virus (Venus under control of the late F17R promoter); type: cell-based, vaccinia strain Western Reserve
# [5] = test system: LV virus / LR virus in A549 cells; type: cell-based, vaccinia strain Western Reserve
# [6] = test system: EV, IV and LV reporter viruses; type: cell-based
# [7] = test system: EV, IV and LV reporter mRNA; type: cell-based, vaccinia strain Western Reserve
# [8] = test system: TrpV reporter virus; type: cell-based
# [9] = test system: viral DNA replication (LV virus); type: cell-based
# [10] = test system: LV virus late reporter expression; type: cell-based, vaccinia strain Western Reserve
# [11] = test system: monkeypox Zaire 1979 (MPDX); type: cell-based
# [12] = test system: cowpox Brighton red (CPX); type: cell-based
# [13] = test system: vaccinia virus strain IHDJ; type: cell-based
# [14] = test system: HIV/Lai; experiment: microbe, parasite or virus in culture; type: cell-based; details: Human immunodeficiency virus 1, TZM-bl, read-out: IC50, inhibition of HIV
# [15] = test system: A549 and HeLa cells
# [16] = test system: cellular and viral protein synthesis
smiles,measurement,setting,value
Nc1ccn([C@@H]2O[C@H](CO)[C@@H](O)[C@@H]2O)c(=O)n1 [AraC],"virus yield reduction, single-cycle",[1],3.5 log
"COC(=O)C1=C2C=C([Si](C)(C)C)CCN2C(=O)NC1c1ccccc1 (centres unmarked) [Compound 4c, methyl 1-oxo-3-phenyl-6-(trimethylsilyl)-2,3,7,8-tetrahydro-1Hpyrido[1,2-c]pyrimidine-4-carboxylate]",melting point,,169 to 172 °C
O=C(NN1C(=O)[C@@H]2[C@@H]3C=C[C@@H]([C@H]4C[C@@H]34)[C@@H]2C1=O)c1ccc(C(F)(F)F)cc1 [ST-246],"virus yield reduction, single-cycle",[1],0.3 log
"CC(=O)C1=C2C=C(C)CCN2C(=O)NC1c1ccccc1 (centres unmarked) [Compound 3b, 4-acetyl-6-methyl-3-phenyl-2,3,7,8-tetrahydro-1H-pyrido[1,2-c]pyrimidin-1-one]",antiviral activity compared with CMLDBU6128,[2],demonstrated antiviral activity but were significantly less active than CMLDBU6 128
"CC(=O)C1=C2C=CCCN2C(=O)N[C@H]1c1ccccc1 [CMLDBU6128, 4-acetyl-2,3,7,8-tetrahydro-3-phenylpyrido[1,2-f]pyrimidin-1-one]",antiviral activity of screening hit,[3],strongly antiviral
same,IC50,[4]; read-out: IC50 for LV reporter expression,~5.3 µM
same,IC90,[4]; read-out: IC90 for LV reporter expression,~10.4 µM
same,viral spread after low MOI infection,[5],limits viral spread after low MOI infection
same,"virus yield reduction, single-cycle",[1],3.6 log
same,EV (early) reporter expression,[6],unaffected
same,IV (intermediate) reporter expression,[6],only reached half-maximal levels
same,reduction of maximum LV (late) reporter fluorescence,[6],approximately 85%
same,EV reporter mRNA accumulation,[7],unaffected
same,reduction of peak IV reporter mRNA,[7],41%
same,reduction of peak LV reporter mRNA,[7],73%
same,early Venus expression (TrpV),[8],no detectable effect
same,mCherry and late TagBFP expression (TrpV),[8],reduced mCherry and late TagBFP expression uniformly
same,Venus DNA copies/c.e.,[9],529 copies/c.e.
same,viral DNA replication,[9],occurred normally
same,reporter expression after drug removal,[10],drug removal did not result in a restart of reporter expression
same,time to flattening of late reporter expression after addition to an unimpeded 10 h infection,[10],≤ 2 h
same,viral yield reduction,[11],2.5 log
same,viral yield reduction,[12],4.0 log
same,viral yield reduction,[13],2.4 log
same,IC50,[14],~20 µM
same,cytotoxicity of screening hit,[15],not cytotoxic
same,cell cytotoxicity,[15]; 24 h,little to no cell cytotoxicity
same,cellular protein synthesis in mock-infected cells,[16],unaffected
same,viral protein synthesis,[16],globally reduced
